{
  "source": "patent US20240139280A1",
  "about": "“USE OF HIF-1-ALPHA INHIBITORS IN CANCER IMMUNOTHERAPY” (ONCOC4, INC., priority 2021, published 2024)",
  "key": {"[1]": {"tested_on": "PD-L1 expression in 4T1 cells", "assay": "PD-L1 expression in 4T1 cells by flow cytometry", "assay_type": "cell-based, murine", "settings": "normoxia, echinomycin 0.45 nM, 48 hours"}, "[2]": {"tested_on": "PD-L1 expression in E0771 cells", "assay_type": "cell-based, murine"}, "[3]": {"tested_on": "PD-L1 in 4T1, E0771, MC38 tumors", "assay": "Intratumoral PD-L1 immunofluorescence in engrafted 4T1, E0771 and MC38 tumors", "assay_type": "in vivo, mice", "settings": "LEM 0.25 mg/kg every other day for 5 doses; two days after final dose"}, "[4]": {"tested_on": "E0771 tumor microenvironment", "assay": "Flow cytometry of dissociated E0771 tumors (tumor cells, myeloid cells, TILs)", "assay_type": "in vivo, C57BL/6 mice", "experimental": "FIGS. 6A-D. E0771 cells (0.5×10^6) were orthotopically transplanted into C57BL/6 mice (day 0). The mice received treatment with vehicle, echinomycin (LEM, 0.25 mg/kg/dose), anti-CTLA-4 mAb (9D9, 0.2 mg/mouse/injection), or their combination on days 6, 8, 10, and 12, and were euthanized on day 14. The tumors were dissociated and analyzed by flow cytometry to quantitate PD-L1 expression on tumor cells (gated on Singlets/Live_CD45^−) (FIG. 6A), M-MDSCs (gated on Singlets/Live_CD45^+/CD11b^+CD11c^−/Ly6ChighLy6G^−) (FIG. 6B), PMN-MDSCs (gated on Singlets/Live_CD45^+/CD11b^+CD11c^−/Ly6CInt.Ly6G^+) (FIG. 6C), or CD11c^+TAMs (gated on Singlets/Live_CD45^+/CD11b^+CD11c^+) (FIG. 6D). Upper panels show representative histograms of PD-L1 staining and lower panels show aggregate data from individual mice, pooled from three independent experiments (n=5 mice/group/experiment). Data shown are mean±SEM of PD-L1 MFI. Statistics were determined by one-way ANOVA with Sidak's multiple comparisons test (FIG. 6A), or by two-tailed unpaired t-tests (FIGS. 6B-D). FIGS. 6E-G. Echinomycin treatment reprograms the TME. Dissociated E0771 tumors were obtained from C57BL/6 mice treated with different therapies (n=5 mice/group), as described in FIGS. 6A-D. Single cell suspension were cultured for 4 hours with PMA+ionomycin+Golgi stop, surface stained, and then intracellular stained for IFNγ (for quantitation of Th1 and Tc1 cells) or surface stained for PD-L1. FIG. 6E. IFNγ expression in CD8+tumor-infiltrating lymphocytes (TILs) (gated on Singlets/Live_CD45^+/CD3^+/CD8^+CD4^−). […] FIG. 6F. IFNγ expression in the CD4^+ TILs (gated on Singlets/Live_CD45^+/CD3^+/CD8^−CD4^+). As in FIG. 6E, except that CD4 TIL were analyzed.\nFIG. 6G. MHCII expression on CD11c^+ TAMs (gated on Singlets/Live_CD45^+/CD11b^+CD11c^+).\nFIGS. 9A-H. C57BL/6 mice received E0771 cells (0.5×10^6/mouse) on day 0 followed by treatment with vehicle, echinomycin (LEM, 0.25 mg/kg/dose), anti-CTLA-4 (9D9, 0.2 mg/mouse/dose), or 9D9+LEM on days 6, 8, and 10. On day 14, tumors were analyzed by flow cytometry. […] Data are presented as the ±SEM of each group (n=5/group), analyzed by unpaired two-tailed Student's t-test and are representative of two experiments. FIGS. 9A-B. Frequencies of TILs expressing PD-1. FIGS. 9C-D. Frequencies of annexin V^+ CD8 or CD4 TILs. FIGS. 9E-F. Frequencies of CD8 TILs expressing granzyme B or perforin. FIGS. 9G-H. Granzyme B and perforin expression in CD4 TILs. FIG. 9I. Effect of depletion of CD4, CD8, or NK cells on tumor growth inhibition by 9D9+LEM in syngeneic E0771 model. C57BL/6 mice received E0771 cells (0.5×10^6/mouse) on day 0. On day 5, the mice were randomized to receive depletory antibodies (500 μg of anti-CD4 (GK1.5), anti-CD8 (YTS169.4), anti-NK1.1 (PK136), or isotype ctrl). All groups received 9D9 (200 ug) on day 6, and LEM (250 ug/kg) on days 6, 8, and 10. Mice received supplemental dose of depletory antibodies (200 μg) on days 8 and 10. The mean±SEM tumor volumes are plotted on the y axes for each group (n=5/group) and analyzed by two-way ANOVA. Representative data shown for one of two experiments."}, "[5]": {"settings": "with or without anti-CTLA-4 therapy"}},
  "data": [
    {"smiles": "CSC1SC[C@H]2C(=O)N(C)[C@@H](C(C)C)C(=O)OC[C@@H](NC(=O)c3cnc4ccccc4n3)C(=O)N[C@@H](C)C(=O)N(C)[C@@H]1C(=O)N(C)[C@@H](C(C)C)C(=O)OC[C@@H](NC(=O)c1cnc3ccccc3n1)C(=O)N[C@@H](C)C(=O)N2C", "note": "(stereo in doubt) [echinomycin, N,N′-(2,4,12,15,17,25-hexamethyl-11,24-bis(1-methylethyl)-27-(methylthio)-3,6,10,13,16,19,23,26-octaoxo-9,22-dioxa-28-thia-2,5,12,15,18,25-hexaazabicyclo(12.12.3)nonacosane-7,20-diyl)bis(2-quinoxalinecarboxamide)]", "values": [
      {"measurement": "PD-L1 protein", "setting": "[1]", "result": "reduced PD-L1 protein"},
      {"measurement": "PD-L1 expression in sh-Hif1α E0771 cells", "setting": "[2]", "result": "abrogated the ability for echinomycin to decrease PD-L1 protein"},
      {"measurement": "PD-L1 protein", "setting": "[2]; E0771 cells, normoxia, echinomycin 0.45 nM, 48 hours", "result": "reduced PD-L1 protein"},
      {"measurement": "PD-L1 expression in sh-Scr E0771 cells", "setting": "[2]; scrambled shRNA, echinomycin 1.35 nM", "result": "inhibitory effect of echinomycin on PD-L1 expression was preserved"},
      {"measurement": "intratumoral PD-L1 expression (immunofluorescence)", "setting": "[3]", "result": "marked reduction in PD-L1 expression"},
      {"measurement": "frequencies of tumor-infiltrated lymphocytes or myeloid subsets", "setting": "[4]; E0771 tumors", "result": "did not significantly impact"},
      {"measurement": "apoptotic (annexin V) CD8 TILs", "setting": "[4]; compared to vehicle, echinomycin added to 9D9", "result": "appeared to repress this effect"},
      {"measurement": "PD-1 expression on CD8 TILs", "setting": "[4]; compared to vehicle, echinomycin added to anti-CTLA-4", "result": "reversed"},
      {"measurement": "PD-L1 expression on CD11b+CD11c+ double-positive cells", "setting": "[4]; [5]", "result": "significantly reduced PD-L1 expression"},
      {"measurement": "PD-L1 expression on PMN-MDSCs", "setting": "[4]; [5]", "result": "significantly reduced PD-L1 expression"},
      {"measurement": "PD-L1 expression on tumor-infiltrated monocytic MDSCs (M-MDSC)", "setting": "[4]; [5]", "result": "significantly reduced PD-L1 expression"},
      {"measurement": "PD-L1 expression on tumor cells", "setting": "[4]; with or without anti-CTLA-4 therapy, LEM 0.25 mg/kg/dose", "result": "significantly reduced PD-L1 expression"}
    ]}
  ]
}
